Measured values taken from US9522888B2, “Substituted bicyclic compounds” (BRISTOL-MYERS SQUIBB COMPANY, priority 2014, dated 2016).

biological target: S1P3 (membranes prepared from EDG3-Gal5-bla HEK293T cells) (Homo sapiens (Human), UniProt Q99500); assay: Receptor [35S] GTPγS binding assay (S1P3 GTPγS); format: biochemical; details: phosphate examples; read-out: S1P3 GTPγS
In short: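 Membranes (3 μg protein/well) from S1P1/CHO cells or EDG3-Gal5-bla HEK293T cells (S1P3) were incubated 45 min at room temperature with 0.2 nM final [35S]GTPγS in HEPES pH 7.5 buffer with 10 μM GDP, MgCl2 and saponin. Bound label counted after filtration; EC50 from 11-point, 3-fold dilutions.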

Chain of S1P3 (membranes prepared from EDG3-Gal5-bla HEK293T cells) (Q99500 whole entry): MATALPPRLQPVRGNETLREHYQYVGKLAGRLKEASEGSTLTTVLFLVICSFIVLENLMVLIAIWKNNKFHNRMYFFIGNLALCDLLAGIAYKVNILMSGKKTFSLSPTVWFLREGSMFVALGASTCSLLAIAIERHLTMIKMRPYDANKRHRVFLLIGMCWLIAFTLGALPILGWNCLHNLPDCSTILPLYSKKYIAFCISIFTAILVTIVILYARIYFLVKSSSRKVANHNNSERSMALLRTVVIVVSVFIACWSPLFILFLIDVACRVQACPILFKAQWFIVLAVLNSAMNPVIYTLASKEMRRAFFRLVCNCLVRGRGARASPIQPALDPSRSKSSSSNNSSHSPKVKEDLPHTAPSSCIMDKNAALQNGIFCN

Structure (SMILES) | EC50 [µM]
CC(C)=CCCOC[C@@H]1CCc2cc([C@H]3CC[C@](N)(COP(=O)(O)O)C3)ccc2C1 [compound 461] | > 0.625
COc1cccc(SC[C@@H]2CCc3cc([C@H]4CC[C@](N)(COP(=O)(O)O)C4)ccc3C2)c1 [compound 528] | > 0.625
CCCCCOC[C@H]1CCc2cc([C@H]3CC[C@](N)(COP(=O)(O)O)C3)ccc2C1 [compound 448] | > 0.625
COCCCC[C@H]1CCc2cc([C@@H]3CC[C@@](N)(COP(=O)(O)O)C3)ccc2C1 [compound 596] | > 0.625
N[C@]1(COP(=O)(O)O)CC[C@H](c2ccc3c(c2)CC[C@@H](CCc2ccccc2)C3)C1 [compound 573] | > 0.625
N[C@]1(COP(=O)(O)O)CC[C@H](c2ccc3c(c2)CC[C@@H](CSCCc2ccncc2)C3)C1 [compound 525] | > 0.625
COc1ccc(C[C@H]2CCc3cc([C@H]4CC[C@](N)(COP(=O)(O)O)C4)ccc3C2)cc1 [compound 568] | > 0.625
N[C@]1(COP(=O)(O)O)CC[C@H](c2ccc3c(c2)CC[C@H](CSCCc2cnccn2)C3)C1 [compound 526] | > 0.625
CCCCCC[C@@H]1Cc2ccc([C@H]3CC[C@](N)(COP(=O)(O)O)C3)cc2CO1 [compound 427] | > 0.625
C/C=C\CCCC[C@@H]1CCc2cc([C@H]3CC[C@](N)(COP(=O)(O)O)C3)ccc2C1 [compound 661] | > 0.625

biological target: S1P1 (membranes prepared from S1P1/CHO cells) (Homo sapiens (Human), UniProt P21453); assay: Receptor [35S] GTPγS binding assay (S1P1 GTPγS); format: biochemical; details: phosphate examples; read-out: S1P1 GTPγS
Sequence (P21453 whole entry): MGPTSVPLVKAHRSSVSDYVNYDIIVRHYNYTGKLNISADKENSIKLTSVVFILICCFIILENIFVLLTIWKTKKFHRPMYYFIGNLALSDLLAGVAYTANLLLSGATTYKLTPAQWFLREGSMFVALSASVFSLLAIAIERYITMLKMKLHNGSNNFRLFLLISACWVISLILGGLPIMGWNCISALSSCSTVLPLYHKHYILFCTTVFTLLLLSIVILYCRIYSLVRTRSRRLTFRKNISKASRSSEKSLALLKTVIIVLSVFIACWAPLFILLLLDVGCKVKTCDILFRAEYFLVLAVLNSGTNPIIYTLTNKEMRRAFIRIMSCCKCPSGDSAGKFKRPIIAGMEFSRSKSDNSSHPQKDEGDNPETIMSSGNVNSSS
In short: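 Membranes from S1P1-expressing CHO cells (3 μg protein/well) incubated with compound (11-point, 3-fold dilution) and 0.2 nM final [35S]GTPγS, 45 min at room temperature. Assay buffer: 20 mM HEPES pH 7.5, 10 mM MgCl2, 150 mM NaCl, 10 μM GDP, 0.1% fatty-acid-free BSA, 10 μg/ml saponin. Filter-bound radioactivity counted by scintillation; EC50 derived.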

Structure (SMILES) | EC50 [µM]
CC(C)=CCCOC[C@@H]1CCc2cc([C@H]3CC[C@](N)(COP(=O)(O)O)C3)ccc2C1 [compound 461] | < 0.01
COc1cccc(SC[C@@H]2CCc3cc([C@H]4CC[C@](N)(COP(=O)(O)O)C4)ccc3C2)c1 [compound 528] | 0.1 to 1
CCCCCOC[C@H]1CCc2cc([C@H]3CC[C@](N)(COP(=O)(O)O)C3)ccc2C1 [compound 448] | < 0.01
COCCCC[C@H]1CCc2cc([C@@H]3CC[C@@](N)(COP(=O)(O)O)C3)ccc2C1 [compound 596] | 0.01 to 0.1
N[C@]1(COP(=O)(O)O)CC[C@H](c2ccc3c(c2)CC[C@@H](CCc2ccccc2)C3)C1 [compound 573] | 0.01 to 0.1
N[C@]1(COP(=O)(O)O)CC[C@H](c2ccc3c(c2)CC[C@@H](CSCCc2ccncc2)C3)C1 [compound 525] | 0.01 to 0.1
COc1ccc(C[C@H]2CCc3cc([C@H]4CC[C@](N)(COP(=O)(O)O)C4)ccc3C2)cc1 [compound 568] | < 0.01
N[C@]1(COP(=O)(O)O)CC[C@H](c2ccc3c(c2)CC[C@H](CSCCc2cnccn2)C3)C1 [compound 526] | 0.01 to 0.1
CCCCCC[C@@H]1Cc2ccc([C@H]3CC[C@](N)(COP(=O)(O)O)C3)cc2CO1 [compound 427] | < 0.01
C/C=C\CCCC[C@@H]1CCc2cc([C@H]3CC[C@](N)(COP(=O)(O)O)C3)ccc2C1 [compound 661] | < 0.01

biological target: human S1P1 (Homo sapiens (Human), UniProt P21453); assay: S1P1 binding assay (33P-S1P radioligand competition, CHO cell membranes); details: phosphate examples; read-out: S1P1 Binding
Sequence (P21453 whole entry): as above
In short: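 Radioligand is 33P-S1P, competing for membranes from human S1P1-expressing CHO cells. Membranes resuspended in 50 mM HEPES pH 7.5, 100 mM NaCl, 1 mM MgCl2, 2 mM EDTA.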

Structure (SMILES) | IC50 [µM]
CC(C)=CCCOC[C@@H]1CCc2cc([C@H]3CC[C@](N)(COP(=O)(O)O)C3)ccc2C1 [compound 461] | < 0.01
COc1cccc(SC[C@@H]2CCc3cc([C@H]4CC[C@](N)(COP(=O)(O)O)C4)ccc3C2)c1 [compound 528] | 0.01 to 0.1
CCCCCOC[C@H]1CCc2cc([C@H]3CC[C@](N)(COP(=O)(O)O)C3)ccc2C1 [compound 448] | < 0.01
COCCCC[C@H]1CCc2cc([C@@H]3CC[C@@](N)(COP(=O)(O)O)C3)ccc2C1 [compound 596] | < 0.01
N[C@]1(COP(=O)(O)O)CC[C@H](c2ccc3c(c2)CC[C@@H](CCc2ccccc2)C3)C1 [compound 573] | 0.01 to 0.1
N[C@]1(COP(=O)(O)O)CC[C@H](c2ccc3c(c2)CC[C@@H](CSCCc2ccncc2)C3)C1 [compound 525] | < 0.01
COc1ccc(C[C@H]2CCc3cc([C@H]4CC[C@](N)(COP(=O)(O)O)C4)ccc3C2)cc1 [compound 568] | 0.01 to 0.1
N[C@]1(COP(=O)(O)O)CC[C@H](c2ccc3c(c2)CC[C@H](CSCCc2cnccn2)C3)C1 [compound 526] | 0.01 to 0.1
CCCCCC[C@@H]1Cc2ccc([C@H]3CC[C@](N)(COP(=O)(O)O)C3)cc2CO1 [compound 427] | 0.01 to 0.1
C/C=C\CCCC[C@@H]1CCc2cc([C@H]3CC[C@](N)(COP(=O)(O)O)C3)ccc2C1 [compound 661] | < 0.01

biological target: hS1P1/CHO cells (Homo sapiens (Human), UniProt P21453); assay: hS1P1 ERK phosphorylation (S1P1 pERK); format: cell-based; details: phosphate examples
Sequence (P21453 whole entry): as above
In short: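 CHO cells expressing human S1P1, serum-starved 2 h, exposed to compound in HBSS/20 mM HEPES for 7 min at 37° C. Lysates assayed for phospho-ERK by SureFire kit; response given as % activation relative to 10 μM S1P.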

Structure (SMILES) | EC50 [µM]
CC(C)=CCCOC[C@@H]1CCc2cc([C@H]3CC[C@](N)(COP(=O)(O)O)C3)ccc2C1 [compound 461] | < 0.01
COc1cccc(SC[C@@H]2CCc3cc([C@H]4CC[C@](N)(COP(=O)(O)O)C4)ccc3C2)c1 [compound 528] | 0.01 to 0.1
CCCCCOC[C@H]1CCc2cc([C@H]3CC[C@](N)(COP(=O)(O)O)C3)ccc2C1 [compound 448] | < 0.01
COCCCC[C@H]1CCc2cc([C@@H]3CC[C@@](N)(COP(=O)(O)O)C3)ccc2C1 [compound 596] | < 0.01
N[C@]1(COP(=O)(O)O)CC[C@H](c2ccc3c(c2)CC[C@@H](CCc2ccccc2)C3)C1 [compound 573] | 0.01 to 0.1
N[C@]1(COP(=O)(O)O)CC[C@H](c2ccc3c(c2)CC[C@@H](CSCCc2ccncc2)C3)C1 [compound 525] | < 0.01
COc1ccc(C[C@H]2CCc3cc([C@H]4CC[C@](N)(COP(=O)(O)O)C4)ccc3C2)cc1 [compound 568] | < 0.01
N[C@]1(COP(=O)(O)O)CC[C@H](c2ccc3c(c2)CC[C@H](CSCCc2cnccn2)C3)C1 [compound 526] | < 0.01
CCCCCC[C@@H]1Cc2ccc([C@H]3CC[C@](N)(COP(=O)(O)O)C3)cc2CO1 [compound 427] | < 0.01
C/C=C\CCCC[C@@H]1CCc2cc([C@H]3CC[C@](N)(COP(=O)(O)O)C3)ccc2C1 [compound 661] | < 0.01
